Read-outs that look alike come from different tables or passages of the source.
Experiments:
[1] = system: APP-SwDI transgenic mice; assay: Carbon dioxide gas inhalation test (cerebral blood flow, laser speckle blood flow imager); format: in vivo, mouse; conditions: 12-month-old mice; for cerebral blood flow increase rate after 5% CO2 supply: feed from 4-week-old to 12-month-old, compared to APP-SwDI mice on normal feed; for time course of the cerebral blood flow increase rate after 5% CO2 supply: measured for 5 min after start of 5% CO2; for significance of the difference in cerebral blood flow increase rate versus normal feed group (repeated measurement and variance analysis): versus APP-SwDI mice on normal feed
Experimental: Analysis was performed by using 12-month-old C57BL/6J mice administered with a normal feed (n=4), APP-SwDI transgenic mice administered with a normal feed (n=10), APP-SwDI transgenic mice administered with a cilostazol-containing feed (n=4), APP-SwDI transgenic mice administered with a taxifolin-containing feed (n=5), and APP-SwDI transgenic mice administered with a feed containing cilostazol and taxifolin (n=7), totaling 30 mice. The feeds containing cilostazol, taxifolin, or cilostazol and taxifolin were administered from 4-week-old to 12-month-old. The concentration of cilostazol in the cilostazol-containing feed was 0.3 wt % and the concentration of taxifolin in the taxifolin-containing feed was 3 wt %. All the APP-SwDI transgenic mice used were homozygous male mice. The mice were anesthetized by intraperitoneal injection of α-chloralose and urethane. Then, endotracheal intubation was performed and the baseline of the cerebral blood flow was measured. Thereafter, 5% CO2 was supplied, and the cerebral blood flow was sequentially measured for 5 min. Relative increase rate was measured from the changes in the cerebral blood flow between the baseline and after 5% CO2 supply. The cerebral blood flow was measured by a laser speckle blood flow imager (OZ-2, OMEGAWAVE, INC.). FIG. 2 is a graph showing mean of relative increase rate of the cerebral blood flow after supply of 5% CO2 in the mice of each group. […] Error bars show standard error.

[2] = system: APP-SwDI transgenic mice; conditions: compared to APP-SwDI mice on control feed; non-patent document 3; cited from earlier work
[3] = system: APP-SwDI transgenic mice; assay: Immunohistochemistry for Aβ deposition on the cerebral blood vessel wall (hippocampus region); format: in vivo, mouse; conditions: 8-month-old mice, drug-containing feed from 4-week-old to 8-month-old; compared to APP-SwDI mice on normal feed
Experimental: The cilostazol-containing feed, the taxifolin-containing feed, and the feed containing cilostazol and taxifolin were administered from 4-week-old to 8-month-old. The concentration of cilostazol in the cilostazol-containing feed was 0.3 wt %, and the concentration of taxifolin in the taxifolin-containing feed was 3 wt %. The concentration of cilostazol and the concentration of taxifolin in the feed containing cilostazol and taxifolin were respectively 0.3 wt % and 3 wt %. All the APP-SwDI transgenic mice used were homozygous male mice. The 4-week-old APP-SwDI transgenic mice are considered to be in the initial stage of accumulation of Aβ in the brain blood vessel, i.e., the initial stage of cerebral amyloid angiopathy, and neuronal loss is considered to be not progressing much in this stage. The brain of an 8-month-old APP-SwDI transgenic mice was perfusion fixed using 4% para-formaldehyde, the removed brain was dehydration-treated for a whole day. A paraffin block of the fixed brain tissue was prepared, and the paraffin block was sliced in 6 microns by microtome. […] The hippocampus region was traced in a section which was cut 1 mm outside the midline, and the percentage of the Aβ accumulation area in the region of interest was measured by using image analysis software ImageJ (National Institutes of Health. USA). […]

[4] = system: amyloid beta; conditions: administration of cilostazol; non-patent documents 1, 2; cited from earlier work
[5] = mouse, in vivo
Experimental: (§1) In the “APP-SwDI transgenic mice administrated with a feed containing cilostazol and taxifolin (n=3)”, as mentioned above, the blood concentration of this mouse was measured after administration of the feed containing cilostazol and taxifolin.

[6] = administration of cilostazol; cilostazol package insert; cited from earlier work
[7] = system: APP-SwDI transgenic mice; assay: Water maze test (Morris water maze, with probe test); format: in vivo, mouse; conditions: 8-month-old mice; for residence time in Zone-1 in the probe test (visuospatial memory): fifth day, platform removed, 60 seconds; for swimming time to reach the platform (visuospatial memory): first day to fourth day, 4 trials per day
Experimental: The cilostazol-containing feed, the taxifolin-containing feed, and the feed containing cilostazol and taxifolin were administered from 4-week-old to 8-month-old. The concentration of cilostazol in the cilostazol-containing feed was 0.3 wt %, and the concentration of taxifolin in the taxifolin-containing feed was 3 wt %. The concentration of cilostazol and the concentration of taxifolin in the feed containing cilostazol and taxifolin were respectively 0.3 wt % and 3 wt %. All the APP-SwDI transgenic mice used were homozygous male mice. The water maze test is a test for evaluating the visuospatial cognitive ability of mouse by utilizing the habit of avoiding water and escaping therefrom. The water maze used in this experiment was Morris water maze manufactured by Brain Science Idea, having a circular pool of a water tank entirely painted black with inner diameter 120 cm, wall height 30 cm. One transparent acrylic circular platform for escape with diameter 10 cm, height 10 cm was set at 30 cm from the center of the pool and 30 cm from the periphery. Clues such as poster, photograph and the like were arranged on the wall so that the mice could memorize various spatial arrangements in the surroundings, and the locations of these clues were always unchanged during the experiment. The pool was filled with water to a depth of 11 cm, and a platform was installed at about 1 cm below the water surface as in FIG. 3(A). In all tests, Zone-2 in FIG. 3(B) was set as a start position. Zone-1 to Zone-4 show quadrant regions in the circular pool. The mice were gently placed on the water surface while facing the wall of the pool so that they could not see the location of the platform. The tests were performed from the first day to the fourth day, 4 trials per day. In each trial, the total swimming distance and the time required for reaching the platform (swimming time) were measured. […] On the fifth day, the mice were made to swim for 60 seconds with the platform removed from the pool (probe test). In the test, the residence time in Zone-1 where the goal was placed from the first day to the fourth day was measured. […] Error bars show standard error. […] Error bars show standard error.

[8] = administration of cilostazol; non-patent documents 1, 2; cited from earlier work
[9] = system: APP-SwDI transgenic mice; assay: Hair loss score (fighting); format: in vivo, mouse; conditions: 13-month-old mice; compared to APP-SwDI mice on normal feed
Description: Hair loss occurs when mice fight. Thus, the extent of hair loss of each mouse was described in 4 grades of Grade: 0-3 and taken as a hair loss score. Almost normal state is Grade: 0 and hair loss over nearly whole body is Grade: 3. Less than 50% of the whole body surface was classified as Grade: 1 and not less than 50% was classified as Grade: 2.
The information of mice was concealed and two evaluators independently evaluated the hair loss score. Mean of each evaluation was taken as the hair loss score of the mice.
Error bars show standard error.

[10] = system: APP-SwDI transgenic mice; assay: Y-maze test (alternation response rate); format: in vivo, mouse; conditions: 13-month-old mice, feed from 4-week-old to 13-month-old; test for 8 minutes
Experimental: The cilostazol-containing feed, the taxifolin-containing feed, and the feed containing cilostazol and taxifolin were administered from 4-week-old to 13-month-old. The concentration of cilostazol in the cilostazol-containing feed was 0.3 wt %, and the concentration of taxifolin in the taxifolin-containing feed was 3 wt %. The concentration of cilostazol and the concentration of taxifolin in the feed containing cilostazol and taxifolin were respectively 0.3 wt % and 3 wt %. All the APP-SwDI transgenic mice used were homozygous male mice. In the Y-maze test, according to the general practice method, the alternation response rate was measured from the results of the test for 8 minutes. […] FIG. 7 is a graph showing an average alternation response rate of the mice of each group. Error bars show standard error.

[11] = Blood concentration after administration of the feed containing cilostazol and taxifolin
Experimental: as §1

[12] = system: APP-SwDI transgenic mice; assay: Survival curve (cumulative survival rate); format: in vivo, mouse; conditions: observation within 500 days after birth; slaughter not included
Description: 1, 2014 to Nov. 30, 2015, were used to plot and analyze a survival curve of the mice.

| Compound | cerebral blood flow increase rate after 5% CO2 supply [1] | time course of the cerebral blood flow increase rate after 5% CO2 supply [1] | significance of the difference in cerebral blood flow increase rate versus normal feed group (repeated measurement and variance analysis) [1] | alternation response in the Y-maze test [2] | intracerebral Aβ accumulation amount [3] | intracerebral accumulation of amyloid beta [4] | presence in the blood (compound or its metabolite) [5] | cerebral blood flow in the vertebral artery, internal carotid artery, cerebral cortex, hypothalamus and the like [6] | residence time in Zone-1 in the probe test (visuospatial memory) [7] | swimming time to reach the platform (visuospatial memory) [7] | reduction of cognitive function [8] | hair loss score (Grade 0-3) [9] | alternation response rate (working memory) [10] | presence in the blood (compound or its metabolite) [11] | death of mice (cumulative survival rate) [12] |
| --- | --- | --- | --- | --- | --- | --- | --- | --- | --- | --- | --- | --- | --- | --- | --- |
| O=C1CCc2cc(OCCCCc3nnnn3C3CCCCC3)ccc2N1 [cilostazol, 6-[4-(1-cyclohexyl-1H-tetrazol-5-yl)butoxy]-3,4-dihydrocarbostyril] | increased | increased after a certain period of time after 5% CO2 supply | a significant difference was absent | increased | significant decrease | suppressed | detected in the blood | increases | visuospatial memory disorder improving effect of cilostazol was considered to be limited | visuospatial memory disorder improving effect of cilostazol was considered to be limited | suppressed | – | – | – | – |
| O=C1c2c(O)cc(O)cc2O[C@H](c2ccc(O)c(O)c2)[C@H]1O [taxifolin] | increased | rapidly increased after 5% CO2 supply | a significant difference was absent | – | significant decrease | – | – | – | the same results as in the C57BL/6J mouse | the same results as in the C57BL/6J mouse | – | clearly severe hair loss | significant improvement was not observed | detected in the blood | died clearly more than other mice |

Source: patent publication US11925633B2, “Drug for preventing and/or treating dementia” (NATIONAL CEREBRAL AND CARDIOVASCULAR CENTER, priority 2016, dated 2024)
